From US12239643B2, “Therapeutic agent for inflammatory diseases, autoimmune diseases, fibrotic diseases, and cancer diseases” (MEIJI SEIKA PHARMA CO., LTD., priority 2018, dated 2025)
Like-named read-outs stand apart in the source and are kept apart here.

System: PDE4
Assay: Evaluation of PDE4 inhibitory activity, scintillation proximity assay
Type: biochemical
Conditions: scintillation proximity assay
Procedure: The BDE4 inhibitory activity was measured using scintillation proximity assay (SPA) as follows. First, a test compound dissolved in dimethyl sulfoxide was diluted 1:10 in reaction buffer solution which contained 50 mM of Tris-HCl with pH 7.4, 8.3 mM of MgCl2, 1.7 mM of EGTA, and 3 mg/mL of bovine serum albumin (BSA). Then, 10 μL of the diluted solution was added in a 96-well assay plate. Moreover, 50 μL of PDE4 (enzyme preparation) diluted 1:375 in the reaction buffer solution was added, and then 40 μL of [2,8-^3H]-adenosine-3′,5′-cyclic phosphate triethylammonium salt diluted 1:1000 in the reaction buffer solution was added. The mixture was allowed to stand at room temperature for 120 minutes. Thereafter, […] of RNA binding YSi-SPA beads suspension containing ZnSO4 was added and the mixture was allowed to stand at room temperature for 15 minutes, followed by adsorption of the enzyme reaction product to the beads. After that, the radioactivity was measured using a liquid scintillation counter for a 96-well plate. The mixture without the enzyme preparation added but only the reaction buffer solution added is a blank, and the mixture with the enzyme preparation added and only dimethyl sulfoxide added instead of the test compound is a control.
In addition, the PDE4 inhibitory activity (concentration that inhibits PDE4 activity by 50%=concentration for the inhibition rate of 50% (IC50)) of the test compound was calculated from the inhibition curves based on the inhibition rates for various concentrations of the test compound.

[1] = class symbols of Evaluation 1, read-out: PDE4 Inhibitory Activity (concentration for the inhibition rate of 50%, IC50), Evaluation 1
[2] = read-out: PDE4 Inhibitory Activity (Evaluation 1; concentration for the inhibition rate of 50%)

Compound | IC50 [1] [nM] | IC50 [2] [nM]
CN(C)C(=O)c1ccc(-c2nccs2)c2oc(N3CC4CCC(C3)N4)nc12 [Example 115, 2-(3,8-Diazabicyclo[3.2.1]octan-3-yl)-N,N-dimethyl-7-(thiazol-2-yl)benzo[d]oxazole-4-carboxamide] | < 100 | 
CC(C)(O)COc1ccc(-c2nccs2)c2oc(N3CC4CC(C3)N4)nc12 [Example 279, 1-((2-(3,6-Diazabicyclo[3.1.1]heptan-3-yl)-7-(thiazol-2-yl)benzo[d]oxazol-4-yl)oxy)-2-methylpropan-2-ol] |  | < 100
OCC(F)(F)Oc1ccc(-n2cccn2)c2oc(N3CC4CC(C3)N4)nc12 [Example 320, 2-((2-(3,6-Diazabicyclo[3.1.1]heptan-3-yl)-7-(1H-pyrazol-1-yl)benzo[d]oxazol-4-yl)oxy)-2,2-difluoroethan-1-ol] |  | < 100
CCOC(=O)c1cc(-c2nccs2)c2oc(N3CC4CCCC(C3)N4)nc2c1C(F)(F)F [Example 164, Ethyl 2-(3,9-diazabicyclo[3.3.1]nonan-3-yl)-7-(thiazol-2-yl)-4-(trifluoromethyl)benzo[d]oxazole-5-carboxylate] | < 100 | 
ON1C2CCC1CN(c1nc3c(OC(F)(F)F)c(Cl)cc(-c4nccs4)c3o1)C2 [Example 375, 3-(5-Chloro-7-(thiazol-2-yl)-4-(trifluoromethoxy)benzo[d]oxazol-2-yl)-3,8-diazabicyclo[3.2.1]octan-8-ol] |  | < 100
OC(O)(c1cc(-c2nccs2)c2oc(N3CC4CCCC(C3)N4)nc2c1)C(F)(F)F [Example 156, 1-(2-(3,9-Diazabicyclo[3.3.1]nonan-3-yl)-7-(thiazol-2-yl)benzo[d]oxazol-5-yl)-2,2,2-trifluoroethane-1,1-diol] | < 100 | 
NS(=O)(=O)c1cc(-c2nccs2)c2oc(N3CC4CCCC(C3)N4)nc2c1 [Example 59, 2-(3,9-Diazabicyclo[3.3.1]nonan-3-yl)-7-(thiazol-2-yl)benzo[d]oxazole-5-sulfonamide] | < 100 | 
CN(C)C(=O)c1cc(-c2nccs2)c2oc(N3CC4CCC(C3)N4)nc2c1 [Example 94, 2-(3,8-Diazabicyclo[3.2.1]octan-3-yl)-N,N-dimethyl-7-(thiazol-2-yl)benzo[d]oxazole-5-carboxamide] | < 100 | 
Cc1ccc(-c2nccs2)c2oc(N3CC4CC(C3)N4)nc12 [Example 26, 2-(3,6-Diazabicyclo[3.1.1]heptan-3-yl)-4-methyl-7-(thiazol-2-yl)benzo[d]oxazole] | < 100 | 
CC(O)COC(c1cc(-c2nccs2)c2oc(N3CC4CCC(C3)N4)nc2c1)C(F)(F)F (stereo not shown) [Example 155, 1-(1-(2-(3,8-Diazabicyclo[3.2.1]octan-3-yl)-7-(thiazol-2-yl)benzo[d]oxazol-5-yl)-2,2,2-trifluoroethoxy)propan-2-ol] | < 100 | 
C=CCOc1cc(-c2nccs2)c2oc(N3CC4CCC(C3)N4)nc2c1 [Example 72, 5-(Allyloxy)-2-(3,8-diazabicyclo[3.2.1]octan-3-yl)-7-(thiazol-2-yl)benzo[d]oxazole] | < 100 | 
COC(c1cc(-c2nccs2)c2oc(N3CC4CCC(C3)N4)nc2c1)C(F)F (stereo not shown) [Example 105, 2-(3,8-Diazabicyclo[3.2.1]octan-3-yl)-5-(2,2-difluoro-1-methoxyethyl)-7-(thiazol-2-yl)benzo[d]oxazole] | < 100 | 
OC(c1cc(-c2nccs2)c2oc(N3CC4CC(C3)N4)nc2c1OC(F)(F)F)C(F)F (stereo not shown) [Example 207, 1-(2-(3,6-Diazabicyclo[3.1.1]heptan-3-yl)-7-(thiazol-2-yl)-4-(trifluoromethoxy)benzo[d]oxazol-5-yl)-2,2-difluoroethan-1-ol] |  | < 100
Oc1cc(-c2nccs2)c2oc(N3CC4CCC(C3)N4)nc2c1 [Example 63, 2-(3,8-Diazabicyclo[3.2.1]octan-3-yl)-7-(thiazol-2-yl)benzo[d]oxazol-5-ol] | < 100 | 
CNC(=O)c1cc(-c2nccs2)c2oc(N3CC4CCC(C3)N4)nc2c1 [Example 100, 2-(3,8-Diazabicyclo[3.2.1]octan-3-yl)-N-methyl-7-(thiazol-2-yl)benzo[d]oxazole-5-carboxamide] | < 100 | 
CC(C)Oc1cc(-c2nccs2)c2oc(N3CC4CCC(C3)N4)nc2c1 [Example 68, 2-(3,8-Diazabicyclo[3.2.1]octan-3-yl)-5-isopropoxy-7-(thiazol-2-yl)benzo[d]oxazole] | < 100 | 
CC(O)c1ccc(-c2nccs2)c2oc(N3CC4CCCC(C3)N4)nc12 (stereo not shown) [Example 239, 1-(2-(3,9-Diazabicyclo[3.3.1]nonan-3-yl)-7-(thiazol-2-yl)benzo[d]oxazol-4-yl)ethan-1-ol] |  | < 100

Compound | IC50 [1] [nM] | IC50 [2] [nM]
O=C(c1ccc(-c2nccs2)c2oc(N3CC4CCC(C3)N4)nc12)N1CCOCC1 [Example 116, (2-(3,8-Diazabicyclo[3.2.1]octan-3-yl)-7-(thiazol-2-yl)benzo[d]oxazol-4-yl) (morpholino)methanone] | < 100 | 
CC(C)(O)COc1ccc(-c2nccs2)c2oc(N3CC4CCC(C3)N4)nc12 [Example 264, 1-((2-(3,8-Diazabicyclo[3.2.1]octan-3-yl)-7-(thiazol-2-yl)benzo[d]oxazol-4-yl)oxy)-2-methylpropan-2-ol] |  | < 100
C[S+]([O-])c1cc(-c2nccs2)c2oc(N3CC4CCCC(C3)N4)nc2c1 (stereo not shown) [Example 44, 2-(3,9-Diazabicyclo[3.3.1]nonan-3-yl)-5-(methylsulfinyl)-7-(thiazol-2-yl)benzo[d]oxazole] | < 100 | 
OCCOC(c1cc(-c2nccs2)c2oc(N3CC4CCC(C3)N4)nc2c1)C(F)(F)F (stereo not shown) [Example 149, 2-(1-(2-(3,8-Diazabicyclo[3.2.1]octan-3-yl)-7-(thiazol-2-yl)benzo[d]oxazol-5-yl)-2,2,2-trifluoroethoxy)ethan-1-ol] | < 100 | 
CC(C)(O)c1cc(-c2nccs2)c2oc(N3CC4CCC(C3)N4O)nc2c1OC(F)(F)F [Example 368, 3-(5-(2-Hydroxypropan-2-yl)-7-(thiazol-2-yl)-4-(trifluoromethoxy)benzo[d]oxazol-2-yl)-3,8-diazabicyclo[3.2.1]octan-8-ol] |  | 100 to 1000
FC(F)(F)c1c(Cl)cc(-c2nccs2)c2oc(N3CC4CCC(C3)N4)nc12 [Example 20, 2-(3,8-Diazabicyclo[3.2.1]octan-3-yl)-5-chloro-7-(thiazol-2-yl)-4-(trifluoromethyl)benzo[d]oxazole] | < 100 | 
NS(=O)(=O)c1cc(-c2nccs2)c2oc(N3CC4CC(C3)N4)nc2c1 [Example 58, 2-(3,6-Diazabicyclo[3.1.1]heptan-3-yl)-7-(thiazol-2-yl)benzo[d]oxazole-5-sulfonamide] | < 100 | 
COC(C)(C)c1cc(-c2cscn2)c2oc(N3CC4CCC(C3)N4)nc2c1OC(F)(F)F [Example 298, 2-(3,8-Diazabicyclo[3.2.1]octan-3-yl)-5-(2-methoxypropan-2-yl)-7-(thiazol-4-yl)-4-(trifluoromethoxy)benzo[d]oxazole] |  | < 100
OC(c1cc(-c2nccs2)c2oc(N3CC4CCC(C3)N4)nc2c1)C(F)(F)F (stereo not shown) [Example 139, 1-(2-(3,8-Diazabicyclo[3.2.1]octan-3-yl)-7-(thiazol-2-yl)benzo[d]oxazol-5-yl)-2,2,2-trifluoroethan-1-ol] | < 100 | 
c1csc(-c2cc(OCC3COC3)cc3nc(N4CC5CCC(C4)N5)oc23)n1 [Example 70, 2-(3,8-Diazabicyclo[3.2.1]octan-3-yl)-5-(oxetan-3-ylmethoxy)-7-(thiazol-2-yl)benzo[d]oxazole] | < 100 | 
FC(F)(F)COc1cc(-c2nccs2)c2oc(N3CC4CC(C3)N4)nc2c1 [Example 67, 2-(3,6-Diazabicyclo[3.1.1]heptan-3-yl)-7-(thiazol-2-yl)-5-(2,2,2-trifluoroethoxy)benzo[d]oxazole] | < 100 | 
OCc1ccc(-c2nccs2)c2oc(N3CC4CC(C3)N4)nc12 [Example 133, (2-(3,6-Diazabicyclo[3.1.1]heptan-3-yl)-7-(thiazol-2-yl)benzo[d]oxazol-4-yl)methanol] | < 100 | 
FC(F)(F)c1ccc(-c2nccs2)c2oc(N3CC4CCC(C3)N4)nc12 [Example 31, 2-(3,8-Diazabicyclo[3.2.1]octan-3-yl)-7-(thiazol-2-yl)-4-(trifluoromethyl)benzo[d]oxazole] | < 100 | 
COC(C)(C)c1cc(-c2nccs2)c2oc(N3CC4CCC(C3)N4)nc2c1 [Example 175, 2-(3,8-Diazabicyclo[3.2.1]octan-3-yl)-5-(2-methoxypropan-2-yl)-7-(thiazol-2-yl)benzo[d]oxazole] | < 100 | 
CC(O)c1cc(-c2nccs2)c2oc(N3CC4CC(C3)N4)nc2c1 (stereo not shown) [Example 107, 1-(2-(3,6-Diazabicyclo[3.1.1]heptan-3-yl)-7-(thiazol-2-yl)benzo[d]oxazol-5-yl)ethan-1-ol] | 100 to 1000 | 
CCOC(c1cc(-c2nccs2)c2oc(N3CC4CC(C3)N4)nc2c1)C(F)(F)F (stereo not shown) [Example 150, 2-(3,6-Diazabicyclo[3.1.1]heptan-3-yl)-5-(1-ethoxy-2,2,2-trifluoroethyl)-7-(thiazol-2-yl)benzo[d]oxazole] | < 100 | 
CC(=O)c1cc(-c2nccs2)c2oc(N3CC4CCC(C3)N4)nc2c1OC(F)(F)F [Example 213, 1-(2-(3,8-Diazabicyclo[3.2.1]octan-3-yl)-7-(thiazol-2-yl)-4-(trifluoromethoxy)benzo[d]oxazol-5-yl)ethan-1-one] |  | < 100
